According to the supplement of paper PMC10307832:

How the values were obtained:
Assay in all cases: relative viability (nuclei count vs DMSO), 5 days (fraction); higher = more cells survive
[1] = compound: CCN1C(=O)C2=CC(=C(N=C2N(C1=O)C3CC3)N)C(=O)N + Cc1nc(Nc2ncc(C(=O)Nc3c(C)cccc3Cl)s2)cc(N2CCN(CCO)CC2)n1 [Dasatinib] (partner 0.075 µM)
In short: (§1)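 Relative viability divides the nuclei count in treated wells by that in vehicle wells. Lung cancer cell lines were seeded in 1536-well plates, dosed by pin tool the next day, and fixed and stained after 5 days in one step with final 0.05% Triton X-100, 1% formaldehyde and 1 ug/ml Hoechst. Dosing was a single drug or a fixed anchor-drug dose plus five library-drug doses (not always all listed) in √10 steps, and values are medians of duplicate plates imaged at 4×.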

[2] = compound: CCN1C(=O)C2=CC(=C(N=C2N(C1=O)C3CC3)N)C(=O)N + Cc1cc(Nc2cc(N3CCN(C)CC3)nc(Sc3ccc(NC(=O)C4CC4)cc3)n2)n[nH]1 [Tozasertib] (partner 0.1 µM)
In short: as §1

[3] = compound: CCN1C(=O)C2=CC(=C(N=C2N(C1=O)C3CC3)N)C(=O)N + O=C(CCCCCCC(=O)Nc1ccccc1)NO [Vorinostat] (partner 1 µM)
In short: as §1

[4] = compound: CCN1C(=O)C2=CC(=C(N=C2N(C1=O)C3CC3)N)C(=O)N + C[C@]1(O)C[C@@H](c2nc(-c3ccc4ccc(-c5ccccc5)nc4c3)c3c(N)nccn32)C1 [Linsitinib] (partner 1 µM)
In short: as §1

[5] = compound: CCN1C(=O)C2=CC(=C(N=C2N(C1=O)C3CC3)N)C(=O)N + O=C(c1cc(Cc2n[nH]c(=O)c3ccccc23)ccc1F)N1CCN(C(=O)C2CC2)CC1 [Olaparib] (partner 8 µM)
In short: as §1

Cell Line	relative viability ([1]; first compound 0.253 µM)	relative viability ([1]; first compound 0.8 µM)	relative viability ([1]; first compound 2.53 µM)	relative viability ([1]; first compound 8 µM)	relative viability ([2]; first compound 0.253 µM)	relative viability ([2]; first compound 0.8 µM)	relative viability ([2]; first compound 2.53 µM)	relative viability ([2]; first compound 8 µM)	relative viability ([3]; first compound 0.253 µM)	relative viability ([3]; first compound 0.8 µM)	relative viability ([3]; first compound 2.53 µM)	relative viability ([3]; first compound 8 µM)	relative viability ([4]; first compound 0.253 µM)	relative viability ([4]; first compound 0.8 µM)	relative viability ([4]; first compound 2.53 µM)	relative viability ([4]; first compound 8 µM)	relative viability ([5]; first compound 0.253 µM)	relative viability ([5]; first compound 0.8 µM)	relative viability ([5]; first compound 2.53 µM)	relative viability ([5]; first compound 8 µM)
PC-14	0.244	0.258	0.252	0.298	0.597	0.604	0.525	0.64	0.621	0.743	0.679	0.779	0.96	0.973	0.948	0.929	0.196	0.26	0.306	0.308
RERF-LC-KJ	0.76	0.82	0.676	0.795	0.498	0.499	0.479	0.441	0.678	0.737	0.807	0.838	0.846	0.864	0.843	0.817	0.887	0.89	0.883	0.897
SK-LU-1	0.196	0.184	0.176	0.187	0.349	0.305	0.324	0.306	0.699	0.755	0.773	0.876	1.02	1.14	1.23	1.06	0.458	0.446	0.429	0.493
SK-MES-1	0.409	0.393	0.393	0.448	0.902	0.931	0.85	0.918	1.04	1.01	1.04	1.08	1.07	0.984	1.02	1.13	0.77	0.76	0.713	0.665
SW 1573	0.564	0.411	0.483	0.464	0.172	0.174	0.142	0.219	0.824	0.848	0.624	0.682	0.817	0.729	0.797	0.781	0.748	0.431	0.519	0.532
UMC-11	0.463	0.434	0.485	0.496	0.2	0.213	0.188	0.206	0.415	0.34	0.373	0.408	0.981	1.01	1.13	1.15	0.376	0.337	0.312	0.365
